Assay [1] relates to Cyld−/− mice. Put plainly: Survival of Cyld−/− mice inoculated with S. pneumoniae after pretreatment. The class given is in vivo, mouse. The following applies: SB203580 10 mg/kg intraperitoneally 2 hours before S. pneumoniae inoculation. As to the method:
For S. pneumoniae-induced lethal infections in wild type, Cyld^−/−, Mkk3^−/−, and PAI-1^−/− mice, anaesthetized mice were intratracheally inoculated with live S. pneumoniae, S. pneumoniae wild type or pneumolysin mutant lysate, or pneumolysin (“PLY”), at a concentration of 5×10^7CFU per mouse for live bacteria and bacterial lysate and 200 ng/mouse for PLY in all experiments unless otherwise indicated, and saline was inoculated as control. The mice were monitored for lethality every 2 hours for the first 12 hours and every 12 hours for 5 days thereafter. To assess the effect of perturbing p38 MAPK signaling on S. pneumoniae-induced lethality in Cyld^−/− mice, Cyld^−/− mice were pretreated with the p38 inhibitor SB203580 (10 mg/kg, intraperitoneally in Cyld^−/− mice) 2 hours before S. pneumoniae inoculation, and mice were then intratracheally inoculated with S. pneumoniae. To determine the effect of administration of exogenous PAI-1 on S. pneumoniae-induced lethality, mice were intratracheally administered with mouse rPAI-1 (12.5 μg/mouse) or saline as control, followed by S. pneumoniae and PLY inoculation 1 day after PAI-1 administration. For PAI-1 neutralization in Cyld^−/− mice, Cyld^−/− mice were intraperitoneally injected with α-PAI-1 mAb (25 μg/mouse for histological analysis and 50 μg/mouse for lethality) 2 hours before S. pneumoniae inoculation. Mouse IgG was used as control. […] Lung tissues were then subjected to histological analysis and total mRNA and protein extraction. In all Examples, saline was used as a control unless otherwise specified.
To assess the effect of perturbing NF-κB signaling on S.p.-induced lethality in Cyld^−/− mice, Cyld^−/− mice were pretreated with the IKK inhibitor Wedelolactone (10 mg/kg, intraperitoneally) 2 hours before S.p. inoculation, and mice were then intratracheally inoculated with S.p.
Differences in survival between wild-type, Cyld-deficient (“Cyld^−/−”), Mkk3-deficient (“Mkk3^−/−”), and PAI/−/−deficient (“PAI-1^−/−”) mice after saline, S. pneumoniae, S. pneumoniae lysate, and/or pneumolysin inoculation with or without SB203580, rPAI-1, or α-PAI-1 mAb were determined by Kaplan-Meier analysis. All tests were performed using SPSS14.0 software (SPSS Inc.). All in vivo survival rate data were evaluated by Log Lank test. All other in vivo and in vitro data were evaluated by Student t-test. Statistical significance was accepted at a value of p<0.05.

Assay [2] concerns PAI-1. Put plainly: PAI-1 mRNA expression in mouse embryonic fibroblasts (Q-PCR). The following applies: Cyld−/− MEF cells; pretreatment with SB203580. The class given is cell-based. As to the method: Cells were cultured on 12-well plates and transfected with various expression plasmids, as described in Examples 1-15 and the Brief Description of the Drawings. All transient transfections were carried out in triplicate using TransIT-LT1 reagent (Minis) following the manufacturer's instructions. […] Transfected cells were pretreated with or without chemical inhibitors including SB203580 (1 μM) for 2 hours. S.p. or pneumolysin was then added to the transfected cells 42 hours after transfection. After 5 hours, the cells were harvested for either RNA extraction and real-time quantitative PCR analysis as described in the Examples or luciferase assay. Luciferase activity was normalized with respect to β-galactosidase activity using the Galacton-Plus substrate system (Tropix) following manufacturer's instruction. In all co-transfections with expression plasmids of signaling molecules, an empty vector was used as a control. […]
Total RNA was isolated with TRIzol reagent (Invitrogen) by following the manufacturer's instructions. Real-Time Quantitative RT-PCR analysis of PAI-1 and CYLD were performed as described in Jono et al., “NF-κB Is Essential for Induction of CYLD, the Negative Regulator of NF-κB: Evidence for a Novel Inducible Autoregulatory Feedback Pathway,” J. Biol. Chem. 279:36171-4 (2004), which is hereby incorporated by reference in its entirety. […]

The values below come from patent US8716237B2, “Methods for the treatment or prevention of hemorrhagic conditions” (University of Rochester, priority 2007, dated 2014).

Take `C[S+]([O-])c1ccc(-c2nc(-c3ccncc3)c(-c3ccc(F)cc3)[nH]2)cc1` (centres unmarked) [SB203580]: in assay [1], the “inoculated mice died within 48 hours” value is listed as “approximately 80%”, the survival was determined as 20% and the “time after inoculation at which mice started to die” value is 12 h. In assay [2], the “PAI-1 expression in cells treated with PLY” value was “reduced PAI-1 expression” and the “PAI-1 expression in cells treated with S. pneumoniae” value is recorded as “reduced PAI-1 expression”.
